Assay results from patent US12103924B2, “Mitogen-activated protein kinase kinase (MEK) degradation compounds and methods of use” (Icahn School of Medicine at Mount Sinai, priority 2020, dated 2024).

Tested on: HT-29 cells
Assay: MTT cell viability assay, HT-29
Assay type: cell-based
Conditions: Homo sapiens, 72 h, MTT assay, 3 d treatment, serial dilutions
Protocol: MTT assay was conducted for HT-29 cells after 3 d treatment with indicated compounds with serial dilutions.
MTT assay was conducted for HT-29 (A) and SK-MEL-28 (B) cells after 3 d treatment with DMSO or indicated compounds with serial dilutions. Clonogenic assay was performed in HT-29 (C) and SK-MEL-28 (D) cells for 14 d treatment with DMSO or indicated compounds with 10, 30 and 100 nM, in duplicate, respectively. Cells were then stained by crystal violet.
Cells (2000 cells per well) were seeded into 96-well microplates. After 20 h, cells were treated with 0.1% DMSO or indicated serial dilutions of compounds in duplicate or triplicate for 3 days. Cell viability was tested using MTT (M6494, Thermo Fisher Scientific) or WST-8 reagent (CK04, Dojindo). Briefly, 12 mM MTT was prepared in PBS or WST-8 reagent was warmed up to room temperature. 20 μL MTT or CCK-8 was then added to each well and the plates were kept in incubator at 37° C. for 3 h in the dark. For the WST-8 assay, signal was obtained after the incubation. For the MTT assay, cell medium was replaced with 200 μL of DMSO after the incubation, and then cell plates were kept at 37° C. for another 30 min. Absorbance signals for MTT and WST-8 were read at 540 nm and 450 nm respectively, with 690 nm as reference performed with Infinite F PLEX plate reader (TECAN, Morrisville, NC, USA). GI50 values were analyzed using GraphPad Prism 8 from the data of at least three independent experiments.
HT-29 or SK-MEL-28 cells (300 cells per well) were seeded in 12-well plates. After 20 h, cells were treated with DMSO or indicated concentrations of compounds in duplicate for two weeks. Medium containing indicated compounds was changed every 3 days. Cells were then fixed and stained with the solution containing 6% (v/v) glutaraldehyde (G5882, Sigma-Aldrich) and 0.5% (w/v) crystal violet for 1 h. To remove the background color, the plates with stained cells were immersed in running water until clear colonies were observed. The plates were dried at RT. The staining images were obtained with Epson Perfection V600 Photo.

SMILES	GI50
Cc1ncsc1-c1ccc(CNC(=O)[C@@H]2C[C@@H](O)CN2C(=O)[C@@H](NC(=O)COCCOCCNCCCONC(=O)c2ccc(F)c(F)c2Nc2ccc(I)cc2F)C(C)(C)C)cc1 [CPD-012, (2S,4R)-1-((S)-17-(tert-butyl)-1-(3,4-difluoro-2-((2-fluoro-4-iodophenyl)amino)phenyl)-1,15-dioxo-3,10,13-trioxa-2,7,16-triazaoctadecan-18-oyl)-4-hydroxy-N-(4-(4-methylthiazol-5-yl)benzyl)pyrrolidine-2-carboxamide]	1.6 ± 0.3 µM
Cc1ncsc1-c1ccc(CNC(=O)[C@@H]2C[C@@H](O)CN2C(=O)[C@@H](NC(=O)CCOCCOCCOCCNCCCONC(=O)c2ccc(F)c(F)c2Nc2ccc(I)cc2F)C(C)(C)C)cc1 [CPD-016, (2S,4R)-1-((S)-21-(tert-butyl)-1-(3,4-difluoro-2-((2-fluoro-4-iodophenyl)amino)phenyl)-1,19-dioxo-3,10,13,16-tetraoxa-2,7,20-triazadocosan-22-oyl)-4-hydroxy-N-(4-(4-methylthiazol-5-yl)benzyl)pyrrolidine-2-carboxamide]	3.3 ± 0.6 µM
Cc1ncsc1-c1ccc(CNC(=O)[C@@H]2C[C@@H](O)CN2C(=O)[C@@H](NC(=O)CCOCCOCCOCCOCCNCCCONC(=O)c2ccc(F)c(F)c2Nc2ccc(I)cc2F)C(C)(C)C)cc1 [CPD-017, (2S,4R)-1-((S)-24-(tert-butyl)-1-(3,4-difluoro-2-((2-fluoro-4-iodophenyl)amino)phenyl)-1,22-dioxo-3,10,13,16,19-pentaoxa-2,7,23-triazapentacosan-25-oyl)-4-hydroxy-N-(4-(4-methylthiazol-5-yl)benzyl)pyrrolidine-2-carboxamide]	1.7 ± 0.1 µM
O=C1CCC(N2C(=O)c3cccc(NCCOCCOCCNCCCONC(=O)c4ccc(F)c(F)c4Nc4ccc(I)cc4F)c3C2=O)C(=O)N1 (stereo not drawn) [CPD-020, N-(3-((2-(2-(2-((2-(2,6-dioxopiperidin-3-yl)-1,3-dioxoisoindolin-4-yl)amino)ethoxy)ethoxy)ethyl)amino)propoxy)-3,4-difluoro-2-((2-fluoro-4-iodophenyl)amino)benzamide]	1.3 ± 0.5 µM
O=C1CCC(N2C(=O)c3cccc(NCCOCCOCCOCCNCCCONC(=O)c4ccc(F)c(F)c4Nc4ccc(I)cc4F)c3C2=O)C(=O)N1 (stereo not drawn) [CPD-021, N-((1-((2-(2,6-dioxopiperidin-3-yl)-1,3-dioxoisoindolin-4-yl)amino)-3,6,9-trioxa-12-azapentadecan-15-yl)oxy)-3,4-difluoro-2-((2-fluoro-4-iodophenyl)amino)benzamide]	0.8 ± 0.2 µM
O=C1CCC(N2C(=O)c3cccc(NCCOCCOCCOCCOCCNCCCONC(=O)c4ccc(F)c(F)c4Nc4ccc(I)cc4F)c3C2=O)C(=O)N1 (stereo not drawn) [CPD-022, N-((1-((2-(2,6-dioxopiperidin-3-yl)-1,3-dioxoisoindolin-4-yl)amino)-3,6,9,12-tetraoxa-15-azaoctadecan-18-yl)oxy)-3,4-difluoro-2-((2-fluoro-4-iodophenyl)amino)benzamide]	0.6 ± 0.09 µM
O=C1CCC(N2C(=O)c3cccc(NCCCNCCCONC(=O)c4ccc(F)c(F)c4Nc4ccc(I)cc4F)c3C2=O)C(=O)N1 (stereo not drawn) [CPD-025, N-(3-((3-((2-(2,6-dioxopiperidin-3-yl)-1,3-dioxoisoindolin-4-yl)amino)propyl)amino)propoxy)-3,4-difluoro-2-((2-fluoro-4-iodophenyl)amino)benzamide]	1.1 ± 0.07 µM
O=C1CCC(N2C(=O)c3cccc(NCCCCNCCCONC(=O)c4ccc(F)c(F)c4Nc4ccc(I)cc4F)c3C2=O)C(=O)N1 (stereo not drawn) [CPD-026, N-(3-((4-((2-(2,6-dioxopiperidin-3-yl)-1,3-dioxoisoindolin-4-yl)amino)butyl)amino)propoxy)-3,4-difluoro-2-((2-fluoro-4-iodophenyl)amino)benzamide]	1.9 ± 0.4 µM
O=C1CCC(N2C(=O)c3cccc(NCCCCCNCCCONC(=O)c4ccc(F)c(F)c4Nc4ccc(I)cc4F)c3C2=O)C(=O)N1 (stereo not drawn) [CPD-027, N-(3-((5-((2-(2,6-dioxopiperidin-3-yl)-1,3-dioxoisoindolin-4-yl)amino)pentyl)amino)propoxy)-3,4-difluoro-2-((2-fluoro-4-iodophenyl)amino)benzamide]	1.8 ± 0.5 µM
O=C1CCC(N2C(=O)c3cccc(NCCCCCCNCCCONC(=O)c4ccc(F)c(F)c4Nc4ccc(I)cc4F)c3C2=O)C(=O)N1 (stereo not drawn) [CPD-028, N-(3-((6-((2-(2,6-dioxopiperidin-3-yl)-1,3-dioxoisoindolin-4-yl)amino)hexyl)amino)propoxy)-3,4-difluoro-2-((2-fluoro-4-iodophenyl)amino)benzamide]	3.8 ± 1.7 µM

The next lines start with the values.

GI50	SMILES
4 ± 0.2 µM	Cc1ncsc1-c1ccc(CNC(=O)[C@@H]2C[C@@H](O)CN2C(=O)[C@@H](NC(=O)COCCNCCCONC(=O)c2ccc(F)c(F)c2Nc2ccc(I)cc2F)C(C)(C)C)cc1 [CPD-002, (2S,4R)-1-((S)-14-(tert-Butyl)-1-(3,4-difluoro-2-((2-fluoro-4-iodophenyl)amino)phenyl)-1,12-dioxo-3,10-dioxa-2,7,13-triazapentadecan-15-oyl)-4-hydroxy-N-(4-(4-methylthiazol-5-yl)benzyl)pyrrolidine-2-carboxamide]
4.8 ± 0.7 µM	Cc1ncsc1-c1ccc(CNC(=O)[C@@H]2C[C@@H](O)CN2C(=O)[C@@H](NC(=O)CCOCCNCCCONC(=O)c2ccc(F)c(F)c2Nc2ccc(I)cc2F)C(C)(C)C)cc1 [CPD-003, (2S,4R)-1-((S)-15-(tert-Butyl)-1-(3,4-difluoro-2-((2-fluoro-4-iodophenyl)amino)phenyl)-1,13-dioxo-3,10-dioxa-2,7,14-triazahexadecan-16-oyl)-4-hydroxy-N-(4-(4-methylthiazol-5-yl)benzyl)pyrrolidine-2-carboxamide]
1.6 ± 0.3 µM	Cc1ncsc1-c1ccc(CNC(=O)[C@@H]2C[C@@H](O)CN2C(=O)[C@@H](NC(=O)CCOCCOCCNCCCONC(=O)c2ccc(F)c(F)c2Nc2ccc(I)cc2F)C(C)(C)C)cc1 [CPD-004, (2S,4R)-1-((S)-18-(tert-Butyl)-1-(3,4-difluoro-2-((2-fluoro-4-iodophenyl)amino)phenyl)-1,16-dioxo-3,10,13-trioxa-2,7,17-triazanonadecan-19-oyl)-4-hydroxy-N-(4-(4-methylthiazol-5-yl)benzyl)pyrrolidine-2-carboxamide]
1.8 ± 0.4 µM	Cc1ncsc1-c1ccc(CNC(=O)[C@@H]2C[C@@H](O)CN2C(=O)[C@@H](NC(=O)CNCCCONC(=O)c2ccc(F)c(F)c2Nc2ccc(I)cc2F)C(C)(C)C)cc1 [CPD-005, (2S,4R)-1-((S)-11-(tert-Butyl)-1-(3,4-difluoro-2-((2-fluoro-4-iodophenyl)amino)phenyl)-1,9-dioxo-3-oxa-2,7,10-triazadodecan-12-oyl)-4-hydroxy-N-(4-(4-methylthiazol-5-yl)benzyl)pyrrolidine-2-carboxamide]
5 ± 1.1 µM	Cc1ncsc1-c1ccc(CNC(=O)[C@@H]2C[C@@H](O)CN2C(=O)[C@@H](NC(=O)CCNCCCONC(=O)c2ccc(F)c(F)c2Nc2ccc(I)cc2F)C(C)(C)C)cc1 [CPD-006, (2S,4R)-1-((S)-12-(tert-Butyl)-1-(3,4-difluoro-2-((2-fluoro-4-iodophenyl)amino)phenyl)-1,10-dioxo-3-oxa-2,7,11-triazatridecan-13-oyl)-4-hydroxy-N-(4-(4-methylthiazol-5-yl)benzyl)pyrrolidine-2-carboxamide]
3 ± 0.5 µM	Cc1ncsc1-c1ccc(CNC(=O)[C@@H]2C[C@@H](O)CN2C(=O)[C@@H](NC(=O)CCCCNCCCONC(=O)c2ccc(F)c(F)c2Nc2ccc(I)cc2F)C(C)(C)C)cc1 [CPD-007, (2S,4R)-1-((S)-14-(tert-Butyl)-1-(3,4-difluoro-2-((2-fluoro-4-iodophenyl)amino)phenyl)-1,12-dioxo-3-oxa-2,7,13-triazapentadecan-15-oyl)-4-hydroxy-N-(4-(4-methylthiazol-5-yl)benzyl)pyrrolidine-2-carboxamide]
11 ± 0.9 µM	Cc1ncsc1-c1ccc(CNC(=O)[C@@H]2C[C@@H](O)CN2C(=O)[C@@H](NC(=O)CCCNCCCONC(=O)c2ccc(F)c(F)c2Nc2ccc(I)cc2F)C(C)(C)C)cc1 [CPD-008, (2S,4R)-1-((S)-13-(tert-Butyl)-1-(3,4-difluoro-2-((2-fluoro-4-iodophenyl)amino)phenyl)-1,11-dioxo-3-oxa-2,7,12-triazatetradecan-14-oyl)-4-hydroxy-N-(4-(4-methylthiazol-5-yl)benzyl)pyrrolidine-2-carboxamide]
2.1 ± 0.1 µM	Cc1ncsc1-c1ccc(CNC(=O)[C@@H]2C[C@@H](O)CN2C(=O)[C@@H](NC(=O)CCCCCNCCCONC(=O)c2ccc(F)c(F)c2Nc2ccc(I)cc2F)C(C)(C)C)cc1 [CPD-009, (2S,4R)-1-((S)-15-(tert-butyl)-1-(3,4-difluoro-2-((2-fluoro-4-iodophenyl)amino)phenyl)-1,13-dioxo-3-oxa-2,7,14-triazahexadecan-16-oyl)-4-hydroxy-N-(4-(4-methylthiazol-5-yl)benzyl)pyrrolidine-2-carboxamide]
0.6 ± 0.1 µM	Cc1ncsc1-c1ccc(CNC(=O)[C@@H]2C[C@@H](O)CN2C(=O)[C@@H](NC(=O)CCCCCCCCNCCCONC(=O)c2ccc(F)c(F)c2Nc2ccc(I)cc2F)C(C)(C)C)cc1 [CPD-010, (2S,4R)-1-((S)-18-(tert-butyl)-1-(3,4-difluoro-2-((2-fluoro-4-iodophenyl)amino)phenyl)-1,16-dioxo-3-oxa-2,7,17-triazanonadecan-19-oyl)-4-hydroxy-N-(4-(4-methylthiazol-5-yl)benzyl)pyrrolidine-2-carboxamide]
0.5 ± 0.2 µM	Cc1ncsc1-c1ccc(CNC(=O)[C@@H]2C[C@@H](O)CN2C(=O)[C@@H](NC(=O)CCCCCCCNCCCONC(=O)c2ccc(F)c(F)c2Nc2ccc(I)cc2F)C(C)(C)C)cc1 [CPD-011, (2S,4R)-1-((S)-17-(tert-butyl)-1-(3,4-difluoro-2-((2-fluoro-4-iodophenyl)amino)phenyl)-1,15-dioxo-3-oxa-2,7,16-triazaoctadecan-18-oyl)-4-hydroxy-N-(4-(4-methylthiazol-5-yl)benzyl)pyrrolidine-2-carboxamide]
0.5 ± 0.03 µM	Cc1ncsc1-c1ccc(CNC(=O)[C@@H]2C[C@@H](O)CN2C(=O)[C@@H](NC(=O)CCCCCCCCCNCCCONC(=O)c2ccc(F)c(F)c2Nc2ccc(I)cc2F)C(C)(C)C)cc1 [CPD-013, (2S,4R)-1-((S)-19-(tert-butyl)-1-(3,4-difluoro-2-((2-fluoro-4-iodophenyl)amino)phenyl)-1,17-dioxo-3-oxa-2,7,18-triazaicosan-20-oyl)-4-hydroxy-N-(4-(4-methylthiazol-5-yl)benzyl)pyrrolidine-2-carboxamide]
